One data set relates to PC12 cells. Put plainly: CellTox assay, survival of PC12 cells under serum deprivation. It counts as cell-based. The note with it: compound 500 nM, 24 h, after 4 h serum starvation; NGF 100 ng/mL as control (Figure 9).
The subject of data set [1] is NIH-3T3 TrkB-expressing cell line. Put plainly: CellTox Green cytotoxicity assay in NIH-3T3 cells stable transfected with TrkB under serum deprivation. It counts as cell-based. The note with it: compound 1 μM, 24 h, after 24 h serum starvation; BDNF 500 ng/mL as control. An outline of the steps: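 TrkB-transfected NIH-3T3 cells were serum-starved for 24 h, then exposed 24 h to compounds at 1 μM or BDNF 500 ng/mL as control. Dead cells stained with CellTox Green and total cells with Hoechst 33342, imaged by microscopy. CellTox-positive counts normalised to total cells per image.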

Data set [2] can be described thus: Metabolic stability in pooled human liver microsomes. The format is in vitro ADME. To be noted: 1 μM. The method, boiled down: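 Test compounds at 1 µM incubated in triplicate with pooled human liver microsomes (0.5 mg/mL) and ~1 mM NADPH at 37 °C, stopped after 60 min. Parent loss classed very slow (<5%) to very fast (>80%); metabolism rated high, moderate or low by t1/2 cut-offs of 30 and 60 min.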
On the technique in general: Microsomes from liver hold many membrane-bound enzymes, among them those of drug oxidation.

In the case of `C[C@]12CC[C@H](O)CC1=CC[C@@H]1[C@@H]2CC[C@@]2(C)[C@H]1CC[C@@]21CC=C(Cn2cc(Cc3ccccc3)nn2)CO1` [ENT-A055, (3S,17R)-5′-[(4-benzyl-1H-1,2,3-triazol-1-yl)methyl]-3′,6′-dihydrospiro[5-androstene-17,2′-pyran]-3-ol], the “protection of PC12 cells from serum deprivation-induced cell death (CellTox)” value in the data set on PC12 cells is “without showing any antiapoptotic activity in PC12 cells”. For the same compound, in data set [1], the “protection of NIH-3T3-TrkB cells from serum deprivation-induced cell death (CellTox)” value is listed as “significantly reduce cell death levels compared to the serum-free control, comparable to the BDNF action”. Further, the “residual of time zero” value in data set [2] (pooled human liver microsomes 0.5 mg/mL, t = 60 min, NADPH) is listed as more than 95%. Further, the “parent structure loss (depletion) class” value in data set [2] (pooled human liver microsomes, 60 min) is “very slow (very slow (<5%))”.

Values taken from paper PMC10568017, “A quest for the stereo-electronic requirements for selective agonism for the neurotrophin receptors TrkA and TrkB in 17-spirocyclic-dehydroepiandrosterone derivatives” (Frontiers in Molecular Neuroscience, 2023).
